Target: Thymidine kinase (Human herpesvirus 1)
Experiment: Binding affinity constant against HSV-1 thymidine kinase

O=c1[nH]c(=O)n([C@H]2C[C@H](O)[C@]3(CO)C[C@H]23)cc1C=CBr [5-((E)-2-Bromo-vinyl)-1-((1R,3S,4S,6S)-4-hydroxy-5-hydroxymethyl-bicyclo[3.1.0]hex-2-yl)-1H-pyrimidine-2,4-dione]
Ki: 62.9 µM

From BindingDB's records for doi:10.1021/jm030241s (National Cancer Institute-Frederick, 2003)
